Results as given in patent publication US8557816B2, “Aurora kinase modulators and method of use” (Amgen Inc., priority 2007, dated 2013).
Like-named read-outs stand apart in the source and are kept apart here.

Columns and labels:
[1] = target: T1, AuroraA-TPX2 (Homo sapiens, UniProt O14965); test: AuroraA-TPX2 Homogeneous Time Resolved Fluorescent (HTRF) kinase assay; type: biochemical; details: average; read-out: AurA_IC50_IP (uM Avg)
T1 construct: 20 μL of AuroraA-TPX2 KD GST for a final volume of about 41 μL; GST
T1 sequence (O14965 133-383 limits assumed): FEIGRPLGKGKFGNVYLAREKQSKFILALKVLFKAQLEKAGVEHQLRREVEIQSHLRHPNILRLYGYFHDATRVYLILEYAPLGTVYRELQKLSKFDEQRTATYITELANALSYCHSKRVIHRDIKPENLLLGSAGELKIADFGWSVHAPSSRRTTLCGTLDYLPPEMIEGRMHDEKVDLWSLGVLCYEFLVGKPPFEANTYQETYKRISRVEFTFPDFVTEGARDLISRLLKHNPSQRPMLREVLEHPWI
T1 sequence (Q9ULW0 1-43 partner limits assumed): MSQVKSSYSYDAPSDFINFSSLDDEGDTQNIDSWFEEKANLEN
Method: AuroraA-TPX2-Homogeneous Time Resolved Fluorescent (HTRF) Kinase Assay:
The Aurora-A HTRF assay begins with Aurora-A in the presence of ATP phosphorylating the biotinylated peptide PLK. The reaction incubates for about 120 min. Detection reagents are added to quench the reaction. These agents stop the reaction by diluting out the enzyme and chelating the metals due to the presence of EDTA. After addition, the assay is incubated overnight to allow the detection reagents to equilibrate.
The AuroraA HTRF assay comprises 1 μL of compound in 100% DMSO, 20 μL of ATP and biotinylated PLK, and 20 μL of AuroraA-TPX2 KD GST for a final volume of about 41 μL. The final concentration of PLK is about 1 μM. […] Buffer conditions are as follows: 60 mM HEPES pH 7.5, 25 mM NaCl, 10 mM MgCl, 2 mM DTT, 0.05% BSA.
(§1) The assay is quenched and stopped with 160 μL of detection reagent. Detection reagents are as follows: Buffer made of 50 mM Tris, pH 7.5, 100 mM NaCl, 3 mM EDTA, 0.05% BSA, 0.1% Tween20. Added to this buffer prior to reading is Steptavidin allophycocyanin (SA-APC) at a final conc in the assay of 0.0005 mg/mL, and europilated anti-phosphoPLK Ab (Eu-anti-PLK) at a final conc of 0.02 nM.
The assay plate is read in either a Discovery or a RubyStar. The eu-anti-PLK is excited at 320 nm and emits at 615 nm to excite the SA-APC which in turn emits at 655 nm.

[2] = target: T2, AuroraB (Homo sapiens, UniProt Q96GD4); test: AuroraB Homogeneous Time Resolved Fluorescent (HTRF) kinase assay; type: biochemical
T2 construct: 20 μL of AuroraB FL H is for a final volume of 41 μL; His
T2 sequence (Q96GD4 whole entry): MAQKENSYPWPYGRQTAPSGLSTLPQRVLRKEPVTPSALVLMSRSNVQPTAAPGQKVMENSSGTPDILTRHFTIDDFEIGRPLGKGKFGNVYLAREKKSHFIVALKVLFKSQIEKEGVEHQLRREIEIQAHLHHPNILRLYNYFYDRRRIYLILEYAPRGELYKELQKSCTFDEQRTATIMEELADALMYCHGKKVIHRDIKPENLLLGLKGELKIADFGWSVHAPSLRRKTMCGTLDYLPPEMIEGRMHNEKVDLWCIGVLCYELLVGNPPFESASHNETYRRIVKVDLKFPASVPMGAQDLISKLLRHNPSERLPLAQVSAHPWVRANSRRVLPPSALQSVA
Method: AuroraB-Homogeneous Time Resolved Fluorescent (HTRF) Kinase Assay:
The AuroraB HTRF assay begins with AuroraB in the presence of ATP phosphorylating the biotinylated peptide Histone H3. The reaction incubates for about 90 min. the reaction is quenched by addition of detection reagents, which stop the reaction by diluting out the enzyme and chelating the metals due to the presence of EDTA. After addition, the assay is incubated for about 60 min to allow detection reagents to equilibrate.
The AuroraB HTRF assay comprises 1 μL of compound in 100% DMSO, 20 μL of ATP and biotinylated Histone H3, and 20 μL of AuroraB FL H is for a final volume of 41 μL. The final concentration of Histone H3 is 0.1 μM. […] Buffer conditions are as follows: 50 mM HEPES pH 7.5, 5 mM NaCl, 0.5 mM MgCl, 0.5 mM MnCl, 2 mM DTT, 0.05% BSA.
as §1, with “0.001” for “0.0005”, “anti-phosphoHistoneH3” for “anti-phosphoPLK”, “(Eu-anti-HisH3)” for “(Eu-anti-PLK)”, “0.064” for “0.02”
The assay plate is read in either a Discovery or a RubyStar. The eu-anti-HisH3 is excited at 320 nm and emits at 615 nm to excite the SA-APC which in turn emits at 655 nm.

[3] = average, read-out: AurB_IC50_IP (uM Avg)

| Structure (SMILES) | IC50 [1] | IC50 [2, 3] | IC50 ([2]; given as class symbol, read-out: AurB_IC50_IP (class symbol)) |
| --- | --- | --- | --- |
| COc1cnc2c(Oc3ccc(Nc4nnc(-c5cccc(C#N)c5)c5ccccc45)cc3)ccnc2c1 [Example 29, 3-(4-(4-(7-methoxy-1,5-naphthyridin-4-yloxy)phenylamino)phthalazin-1-yl)benzonitrile] | 0.139 µM | 0.018 µM | – |
| COc1cnc2c(Oc3ccc(Nc4nnc(-c5nccn5C)c5ccccc45)cc3)ccnc2c1 [Example 30, N-(4-(7-methoxy-1,5-naphthyridin-4-yloxy)phenyl)-4-(1-methyl-1H-imidazol-2-yl)phthalazin-1-amine] | 1.39 µM | – | – |
| COc1cnc2c(Oc3ccc(Nc4nnc(C#CC(C)(C)C)c5ccccc45)cc3)ccnc2c1 [Example 31, 4-(3,3-dimethylbut-1-ynyl)-N-(4-(7-methoxy-1,5-naphthyridin-4-yloxy)phenyl)phthalazin-1-amine] | 0.033 µM | 0.008 µM | – |
| COc1cnc2c(Oc3ccc(Nc4nnc(N5CCCCCC5)c5ccccc45)cc3)ccnc2c1 [Example 32, 4-(azepan-1-yl)-N-(4-(7-methoxy-1,5-naphthyridin-4-yloxy)phenyl)phthalazin-1-amine] | 0.016 µM | 0.009 µM | – |
| Clc1ccc(-c2nnc(Nc3ccc(Sc4ccnc5cccnc45)cc3)c3ccccc23)cc1 [Example 33, N-(4-(1,5-naphthyridin-4-ylthio)phenyl)-4-(4-chlorophenyl)phthalazin-1-amine] | 0.022 µM | 0.003 µM | – |
| COc1cnc2c(Nc3cnc(Nc4nnc(-c5ccccc5)c5ccccc45)nc3)ccnc2c1 [Example 36, N^5-(7-Methoxy-1,5-naphthyridin-4-yl)-N^2-(4-phenylphthalazin-1-yl)pyrimidine-2,5-diamine] | 0.038 µM | 0.004 µM | – |
| COc1ccc(-c2nnc(Nc3ccc(Oc4ccnc5cc(OC)cnc45)cc3)c3ccccc23)cc1 [Example 37, N-(4-(7-methoxy-1,5-naphthyridin-4-yloxy)phenyl)-4-(4-methoxyphenyl)phthalazin-1-amine] | 0.02 µM | 0.004 µM | – |
| COc1cnc2c(Oc3ccc(Nc4nnc(-c5ccc(C(C)(C)C)cc5)c5ccccc45)cc3)ccnc2c1 [Example 38, 4-(4-tert-butylphenyl)-N-(4-(7-methoxy-1,5-naphthyridin-4-yloxy)phenyl)phthalazin-1-amine] | 0.023 µM | 0.017 µM | – |
| COc1ccc2c(Oc3ccc(Nc4nnc(-c5ccc(C(F)(F)F)cc5)c5ccccc45)cc3)c(F)cnc2c1 [Example 39, N-(4-(3-fluoro-7-methoxyquinolin-4-yloxy)phenyl)-4-(4-(trifluoromethyl)phenyl) phthalazin-1-amine] | – | 1 µM | – |
| COc1cnc2c(Nc3ccc(Nc4nnc(-c5ccccc5)c5ccccc45)cc3)ccnc2c1 [Example 40, N^1-(7-methoxy-1,5-naphthyridin-4-yl)-N^4-(4-phenylphthalazin-1-yl)benzene-1,4-diamine] | 0.044 µM | 0.007 µM | – |
| COc1cnc2c(Oc3ccc(Nc4nnc(-c5ccccc5)c5ccccc45)cn3)ccnc2c1 [Example 41, N-(6-(7-methoxy-1,5-naphthyridin-4-yloxy)pyridin-3-yl)-4-phenylphthalazin-1-amine] | 0.079 µM | 0.009 µM | – |
| c1ccc(-c2nnc(Nc3ccc(Oc4ccnc5cc(N6CCOCC6)ccc45)cc3)c3ccccc23)cc1 [Example 42, N-(4-(7-Morpholinoquinolin-4-yloxy)phenyl)-4-phenylphthalazin-1-amine] | 0.011 µM | 0.002 µM | – |
| CC(=O)Nc1ccc2nccc(Oc3ccc(Nc4nnc(-c5ccccc5)c5ccccc45)cc3)c2c1 [Example 43, N-(4-(4-(4-Phenylphthalazin-1-ylamino)phenoxy)quinolin-6-yl)acetamide] | 0.112 µM | 0.008 µM | – |
| N#Cc1ccc2c(Oc3ccc(Nc4nnc(-c5ccccc5)c5ccccc45)cn3)ccnc2c1 [compound 174, 4-(5-(4-phenylphthalazin-1-ylamino)pyridin-2-yloxy)quinoline-7-carbonitrile] | – | 5 µM | – |
| COc1cnc2c(Oc3ccc(Nc4nnc(-c5cccc(N6CCCCC6)c5)c5ccccc45)cc3)ccnc2c1 [compound 197, N-(4-((7-(methyloxy)-1,5-naphthyridin-4-yl)oxy)phenyl)-4-(3-(1-piperidinyl)phenyl)-1-phthalazinamine] | 0.034 µM | – | – |
| Cc1ccc(-c2nnc(Nc3ccc(Oc4ccnc5cc(-c6cncn6C)sc45)cc3)c3ccccc23)nc1 [compound 255, N-(4-((2-(1-methyl-1H-imidazol-5-yl)thieno[3,2-b]pyridin-7-yl)oxy)phenyl)-4-(5-methyl-2-pyridinyl)-1-phthalazinamine] | 0.005 µM | – | – |
| Cn1cncc1-c1cc2nccc(Oc3ccc(Nc4nnc(-c5ccc(Cl)cc5)c5ccccc45)cn3)c2s1 [compound 267, 4-(4-chlorophenyl)-N-(6-((2-(1-methyl-1H-imidazol-5-yl)thieno[3,2-b]pyridin-7-yl)oxy)-3-pyridinyl)-1-phthalazinamine] | 0.011 µM | – | – |

Further lines, results first:

| IC50 [1] | IC50 [2, 3] | IC50 ([2]; given as class symbol, read-out: AurB_IC50_IP (class symbol)) | Structure (SMILES) |
| --- | --- | --- | --- |
| – | 0.189 µM | – | COc1cc2nncc(Oc3ccc(Nc4nnc(-c5ccc(Cl)cc5)c5ccccc45)cc3)c2cc1OC [compound 282, N-(4-((6,7-bis(methyloxy)-4-cinnolinyl)oxy)phenyl)-4-(4-chlorophenyl)-1-phthalazinamine] |
| – | – | < 0.1 µM | Fc1cc(F)c2c(Sc3ccc(Nc4nnc(-c5ccccc5)c5ccccc45)cc3)ccnc2c1 [compound 295, N-(4-((5,7-difluoro-4-quinolinyl)thio)phenyl)-4-phenyl-1-phthalazinamine] |
| – | 0.07 µM | – | Cc1noc(-c2cc3nccc(Sc4ccc(Nc5nnc(-c6ccccc6)c6ccccc56)cc4)c3s2)n1 [compound 303, N-(4-((2-(3-methyl-1,2,4-oxadiazol-5-yl)thieno[3,2-b]pyridin-7-yl)thio)phenyl)-4-phenyl-1-phthalazinamine] |
| – | 0.093 µM | – | Fc1cc(F)c2c(Sc3ccc(Nc4nnc(-c5ccccc5)c5ccccc45)cc3)ccnc2c1 [compound 311, N-(4-((5,7-difluoro-4-quinolinyl)thio)phenyl)-4-phenyl-1-phthalazinamine] |
| – | 0.07 µM | – | Cc1noc(-c2cc3nccc(Sc4ccc(Nc5nnc(-c6ccccc6)c6ccccc56)cc4)c3s2)n1 [compound 318, N-(4-((2-(3-methyl-1,2,4-oxadiazol-5-yl)thieno[3,2-b]pyridin-7-yl)thio)phenyl)-4-phenyl-1-phthalazinamine] |
| – | 0.036 µM | – | Clc1ccc(-c2nnc(Nc3ccc(Sc4ccnc5ccccc45)cc3)c3ccccc23)cc1 [compound 333, 4-(4-chlorophenyl)-N-(4-(quinolin-4-ylthio)phenyl)phthalazin-1-amine] |
| – | 0.045 µM | – | Clc1ccc(-c2nnc(Nc3ccc(CN4CCOc5ccccc54)cc3)c3ccccc23)cc1 [compound 349, 4-(4-chlorophenyl)-N-(4-((2,3-dihydrobenzo[b][1,4]oxazin-4-yl)methyl)phenyl)phthalazin-1-amine] |
| – | 0.345 µM | – | CNC(=O)c1cc(Sc2ccc(Nc3nnc(-c4ccc(Cl)cc4)c4ccccc34)cc2)ccn1 [compound 360, 4-(4-(4-(4-chlorophenyl)phthalazin-1-ylamino)phenylthio)-N-methylpicolinamide] |
| – | 3 µM | – | Clc1ccc(-c2nnc(Nc3ccc(Oc4cnnc5ccc(Br)cc45)cc3)c3ccccc23)cc1 [compound 369, N-(4-(6-bromocinnolin-4-yloxy)phenyl)-4-(4-chlorophenyl)phthalazin-1-amine] |
